# Entries after “also recorded” stand apart in the source; their conditions may differ.
# Legend:
# Cl— channel (GABA-gated) = test: Radioligand binding, Cl- channel (GABA-gated); conditions: antagonist radioligand
# Experimental: (§1) Melafenoxate was tested at 10^−5 M, calculated as a % inhibition of control specific binding of a radioactively labeled ligand specific for each target.
# (§2) This binding profile panel was broadly defined with roughly an equal number of selective, central and peripheral therapeutically relevant targets, including native animal tissues, radioligands and specific enzymes involved in cell cycle regulation in accordance with Eurofins Standard Operating Procedure.
# (§3) For radioligand binding experiments, the half maximal inhibitory concentration (IC50) and the half maximal effective concentration (EC50) values were determined (via computer software) by nonlinear regression analysis of the competition curves using Hill equation curve fitting. The inhibition constants (Ki) were calculated using the Cheng-Prusoff equation (Ki=IC50/(1+(L/KD)), where L is the concentration of radioligand in the assay, and KD is the affinity of the radioligand for the receptor.^49
# (§4) The results are expressed as a % control specific binding ([measured specific binding/control specific binding]×100) and as a % inhibition of control specific binding (100−[(measured specific binding/control specific binding)×100]) obtained in the presence of the test compounds. […]
# DAT (h) = biological target: T1, DAT (h) (Homo sapiens, UniProt Q01959); test: Radioligand binding, DAT (h); conditions: 10^−5 M; antagonist radioligand
# T1 construct: Eurofins
# Experimental: as §1, §2, §3, §4
# C57BL/6J mice [1] = test: Spontaneous locomotor activity in open-field; format: in vivo; conditions: 3.125, 6.25, 12.5, 25, 50 and 100 mg/kg
# Experimental: (§5) Experiments were carried out on C57BL/6J mice.
# The effects of NLS-8 (6 doses) on spontaneous locomotor activity were examined. For this purpose, animals received an injection of NLS-8 (3.125, 6.25, 12.5, 25, 50 and 100 mg/kg) or its vehicle (Control group) (N=6/group) and were placed in an open-field for a 90-min session.
# Locomotor activity (distance travelled in the open-field during the first, second and third 30-min period following treatment) was automatically recorded.
# Data analysis: between group comparisons of all groups vs. the Control group: unpaired Student's t test.
# C57BL/6J mice [2] = test: Scopolamine-induced amnesia in the novel object recognition (NOR) test; format: in vivo
# Experimental: The scopolamine-induced amnesia in the novel object recognition (NOR) test in mice is a recognized in vivo model of Alzheimer Disease (AD).
# The aim of this study is to examine whether Melafenoxate (NLS-8) improves amnesia induced by scopolamine in the NOR test.
# as §5
# In a first step of the experiment, NLS-8 was tested at 25, 50 and 100 mg/kg.
# Animals were divided into 6 groups (N=4-10/group).
# At T=0 min, they received the following treatments by intraperitoneal (i.p.) route: • Control group: vehicle. • Scopolamine group: scopolamine (1.2 mg/kg). • NLS-8 25 group: NLS-8 (25 mg/kg)+scopolamine (1.2 mg/kg). • NLS-8 50 group: NLS-8 (50 mg/kg)+scopolamine (1.2 mg/kg). • NLS-8 100 group: NLS-8 (100 mg/kg)+scopolamine (1.2 mg/kg). • NLS-8 150 group: NLS-8 (150 mg/kg)+scopolamine (1.2 mg/kg).
# At T=30 min following treatment, animals were subjected to a sample trial. They were placed for a 12-min session in a circular experimental box in which two identical objects were presented (50% of animals: two brown cylindrical vials; 50% of animals: two black rectangular columns). At t=120 min following treatments, mice were subjected to a choice trial. They were placed again for a 12-min session in the same experimental box in which two different objects (a vial and a column) were presented: one of the objects (termed as familiar object) presented in the sample trial and a novel object. Exploration of the objects was recorded by an experimenter blind to treatment and unaware of which object was the novel one and which object was the familiar one.
# DI(discrimination index)=100 ×(exploration time of the novel object−exploration time of the familiar object)/(exploration time of the novel object+exploration time of the familiar object). • Index of exploration: N+F=exploration time of the novel object+exploration time of the familiar object.
# • Within group comparisons: DI vs. 0 (paired Student's t test). • Between group comparisons vs. the Control group and vs. the Scopo group: unpaired Student's t test.
# [3] = NLS-8 25-150 mg/kg + scopolamine 1.2 mg/kg i.p.
# T1 sequence (Q01959 whole entry): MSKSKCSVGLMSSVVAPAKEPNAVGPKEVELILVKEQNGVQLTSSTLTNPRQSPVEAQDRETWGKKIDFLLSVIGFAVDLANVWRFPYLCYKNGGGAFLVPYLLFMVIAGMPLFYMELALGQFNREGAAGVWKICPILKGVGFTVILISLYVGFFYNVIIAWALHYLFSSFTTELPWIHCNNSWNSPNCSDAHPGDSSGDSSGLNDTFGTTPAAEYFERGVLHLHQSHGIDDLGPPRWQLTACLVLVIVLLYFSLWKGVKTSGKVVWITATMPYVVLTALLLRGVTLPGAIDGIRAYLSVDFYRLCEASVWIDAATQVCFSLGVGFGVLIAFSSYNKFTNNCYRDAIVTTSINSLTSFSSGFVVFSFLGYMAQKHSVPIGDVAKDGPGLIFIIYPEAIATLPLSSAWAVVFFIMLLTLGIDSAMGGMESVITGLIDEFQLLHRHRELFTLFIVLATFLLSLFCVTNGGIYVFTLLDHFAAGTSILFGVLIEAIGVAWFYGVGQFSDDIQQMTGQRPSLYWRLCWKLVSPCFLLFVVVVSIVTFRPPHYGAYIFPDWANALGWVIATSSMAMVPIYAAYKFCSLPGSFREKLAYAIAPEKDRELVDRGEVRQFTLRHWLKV
smiles,measurement,setting,value
"O=C(COc1ccc(Cl)cc1)OCCNC12CC3CC(CC(C3)C1)C2 [Melafenoxate, 2-(1-adamantylamino)ethyl 2-(4-chlorophenoxy)acetate]",% Inhibition at 10^−5 M,Cl— channel (GABA-gated),13.5%
same,inhibition at 10 µM,DAT (h),20.9%
same,distance travelled in the open-field (locomotor activity) vs. Control group,"C57BL/6J mice [1]; 90-min session, C57BL/6J mice, listed as NLS-8",did not significantly modify; also recorded: no significant
same,visible side effect,C57BL/6J mice [1]; any dose tested,did not induce visible side effect
same,discrimination index vs. 0 (within group),C57BL/6J mice [2]; NLS-8 25 mg/kg + scopolamine 1.2 mg/kg i.p.,Non-significantly higher than 0
same,discrimination index vs. 0 (within group),C57BL/6J mice [2]; NLS-8 50 mg/kg + scopolamine 1.2 mg/kg i.p.,Significantly higher than 0
same,exploration time of objects (N+F) during the choice trial,"C57BL/6J mice [2]; NLS-8 50 mg/kg + scopolamine 1.2 mg/kg i.p., vs. Control and Scopo groups",higher than that of Control and Scopo groups
same,discrimination index vs. 0 (within group),C57BL/6J mice [2]; NLS-8 100 mg/kg + scopolamine 1.2 mg/kg i.p.,Non-significantly higher than 0
same,discrimination index vs. 0 (within group),C57BL/6J mice [2]; NLS-8 150 mg/kg + scopolamine 1.2 mg/kg i.p.,Non-significantly higher than 0
same,effect on amnesia induced by scopolamine (conclusion),C57BL/6J mice [2]; NLS-8 25-150 mg/kg,can improve amnesia induced by scopolamine
same,"discrimination index, NLS-8 groups vs. Control group",C57BL/6J mice [2]; [3],Not significantly different
same,"discrimination index, NLS-8 groups vs. Scopo group",C57BL/6J mice [2]; [3],Not significantly different; also recorded: not significant
same,exploration time of objects (N+F) during the choice trial,C57BL/6J mice [2]; all other comparisons (other than NLS-8 50 group) vs. Control and vs. Scopo group,not significant
